Experimental data as given in patent US11800869B2, “Use of 6-oxo-1,4,5,6-tetrahydropyridazine-3-carboxylic acid, 1-methyl 6-oxo-1,4,5,6-tetrahydropyridazine-3-carboxylic acid and 1-alkyl-6-oxo-1,4,5,6-tetrahydropyridazine-3-carboxylic acid for improving growth performance in plants” (Advanced Crop Chem LLP, priority 2020, dated 2023).

Assays:
Type in all cases: in vivo
[1] = tested on: Wheat; test: Wheat seed treatment, field grown, root biomass (Example 7); conditions: untreated 0.66
Description: Wheat seeds were treated with 1-methyl 6-oxo-1,4,5,6 tetrahydropyridazine-3-carboxylic acid treated plants to examine the impact on root biomass for field grown plants. Wheat seeds were treated with 1-methyl 6-oxo-1,4,5,6 tetrahydropyridazine-3-carboxylic acid and field grown. The plants from seeds treated with 1-methyl 6-oxo-1,4,5,6 tetrahydropyridazine-3-carboxylic acid had larger root biomass (0.84 g dry weight/plant) compared with plants from untreated seeds (0.66 g dry weight/plant).

[2] = tested on: Winter wheat variety AWC 13; test: Wheat seed treatment, greenhouse, root biomass (Example 1); conditions: seed treatment 10g per 1 ton of seed; greenhouse 21° C; 30 days after planting; untreated 0.65
Description: Wheat seeds were treated with 6-oxo-1,4,5,6 tetrahydropyridazine-3-carboxylic acid (THP) and treated plants to examine the impact on shoot and root biomass. Winter wheat variety AWC 13 seeds were treated with either 6-oxo-1,4,5,6-tetrahydropyridazine-3-carboxylic acid (THP) or 1-methyl 6-oxo-1,4,5,6 tetrahydropyridazine-3-carboxylic acid (MTHP) at an effective rate of 10g diluted in 2 L water plus 0.25% Nouryon wetter and applied to 1 ton of seed. These seed were planted in coarse river sand and grown in a greenhouse under ambient light at the greenhouse at 21° C. Plants were irrigated every other day with water containing 50% strength Hoaglands solution. Plants were assessed for emergence and biomass accumulation 30 days after planting. The plants from seeds treated with 6-oxo-1,4,5,6-tetrahydropyridizin-3-carboxylic acid or 1-methyl 6-oxo-1,4,5,6 tetrahydropyridazine-3-carboxylic acid had larger root biomasses (0.83, 0.85 g, dry weight/plant) compared with plants from untreated seeds (0.65 g dry weight/plant).

[3] = tested on: Field grown wheat plants (Var: AWC 13); test: Foliar treatment of field grown wheat (Example 6); conditions: foliar treatment at Zadoks GS 25-26, 100 g in 200 L water, mean of 10 plants
Description: Field grown wheat plants (Var: AWC 13) were given foliar treatment at Zadoks GS 25-26 (FIG. 1) of 6-oxo-1,4,5,6 tetrahydropyridazine-3-carboxylic acid (THP) or 1-methyl 6-oxo-1,4,5,6 tetrahydropyridazine-3-carboxylic acid (MTHP) both at 100 g in 200 L water plus 0.25% Nouryon wetter. Plants were grown under standard UK wheat growing cultural practice (https://andb.org.uk/wheatgg). Yield was assessed at harvest.

[4] = tested on: wheat plants (Variety Skyfall); test: Foliar treatment of greenhouse grown wheat, foliar and root biomass (Example 4); conditions: foliar treatment, 30 days later, Zadocks growth stage 22-24
Description: Wheat, corn and pepper seeds were treated with 6-oxo-1,4,5,6-tetrahydropyridizine-3-carboxylic acid (THP) using the same methodology and growth conditions as described in example 1 and the resulting plants were also treated with a light foliar cover spray using an electric hand-held sprayer. (100 g in 200 L water plus 0.25% Nouryon wetter) of 6-oxo-1,4,5,6 tetrahydropyridazine-3-carboxylic acid (30 days post emergence (wheat at Zadoks GS 14 (see FIG. 1), maize at V2, Pepper at 3-4 leaf stage) and then assessed for root and shoot biomass 45 days later. At 75 days post planting the plants were assessed for root and shoot biomass as measured with dry weight. Greenhouse grown wheat plants (Variety […]) were given foliar treatment of 1-methyl 6-oxo-1,4,5,6 tetrahydropyridazine-3-carboxylic acid (MTHP) or 6-oxo-1,4,5,6 tetrahydropyridazine-3-carboxylic acid (THP), utilizing the same methodology as in example 2. Foliar and root biomass were determined 30 days later at Zadocks growth stage 22-24.

[5] = tested on: Wheat plants (Variety AWC 13); test: Foliar treatment of wheat, foliar and root dry biomass (Example 5); conditions: foliar treatment at Zadoks GS 15-20, 30 days after application, mean of 10 plants
Source text: Wheat plants (Variety AWC 13) were given a foliar treatment of 6-oxo-1,4,5,6-tetrahydropyridazine-3-carboxylic acid(THP) or 1-methyl 6-oxo-1,4,5,6 tetrahydropyridazine-3-carboxylic acid (MTHP) and their foliar and root dry biomass determined 30 days after application. The foliar applications were applied at approximately at Zadoks GS 15-20 (see FIG. 1) and assessed 30 days later at Zadoks GS 22-24 (also shown in FIG. 1).

## CN1N=C(C(=O)O)CCC1=O [MTHP, 1-methyl 6-oxo-1,4,5,6 tetrahydropyridazine-3-carboxylic acid]
[1]
  root biomass: 0.84 g dry weight/plant
[2]
  root biomass: 0.85 g, dry weight/plant
[3]; Con 0.47
  Dry Weight Shoot: 0.98
[3]; Con 0.65
  Dry Weight Root: 2.06
[4]; Con 0.55
  Dry Weight Shoot: 0.7 g
[4]; Con 1.03
  Dry Weight Root: 1.64 g
[5]; Con 0.47
  Dry Weight Shoot: 0.98
[5]; Con 0.65
  Dry Weight Root: 2.06
